Experiment in series [1]: not given
This is another data set of the same source.

SMILES strings stand for the structures.

In turn, `C[C@H]1CCC[C@H](C)C1` (relative stereo) [trans-1,3-dimethylcyclohexane] gave a flash point of 8 °C.

On to `CC1(C)CCCC1` [1,1-dimethylcyclopentane], for which the flash point is -16 °C.

With `C=CCC=CC` [1,4-hexadiene], the flash point was -25 °C.

`CCc1ccccc1C(C)C` [1-ethyl-2-isopropylbenzene]: the flash point was determined as 58 °C.

For the molecule `CCCC(C)(C)C(C)(C)C` [2,2,3,3-tetramethylhexane], the flash point was found to be 31 °C.

`CC(C)(C)CCC(C)(C)C` [2,2,5,5-tetramethylhexane] gave a flash point of 16 °C.

For `CC(C)C(C)(C)C(C)C` [2,3,3,4-tetramethylpentane], the flash point was 11 °C.

In turn, `C=C(C)C(C)(C)C` [2,3,3-trimethyl-1-butene] registered a flash point of -17 °C.

`C=C(C)C(C)CC` (stereo not given) [2,3-dimethyl-1-pentene] yielded a flash point of -17 °C.

As for `CCC(C)CCCC(C)C` (stereo not given) [2,6-dimethyloctane], the flash point came out at 34 °C.

For `C=C(CC)CCC` [2-ethyl-1-pentene], the flash point is -10 °C.

In the case of `C#CC(C)(C)C` [3,3-dimethyl-1-butyne], the flash point was -34 °C.

With `CCC(CC)C(C)C` [3-ethyl-2-methylpentane], the flash point worked out at 3 °C.

`CCC(CC)CC` [3-ethylpentane]: the flash point is -12 °C.

Take `CCCCCCC(C)CC` (stereo not given) [3-methylnonane]: the flash point worked out at 41 °C.

Regarding `C=CCC(C)(C)C` [4,4-dimethyl-1-pentene], the flash point is -12 °C.

Take `CC#CC(C)(C)C` [4,4-dimethyl-2-pentyne]: the flash point was -10 °C.

Molecule `C=CCC(C)CC` (stereo not given) [4-methyl-1-hexene] gave a flash point of -15 °C.

With `C#CCC(C)C` [4-methyl-1-pentyne], the flash point is -24 °C.

`CCCCC(C)CCC` (stereo not given) [4-methyloctane] gave a flash point of 22 °C.

On to `C=CCCC(C)C` [5-methyl-1-hexene], for which the flash point was -10 °C.

On to `C#CCCC(C)C` [5-methyl-1-hexyne], for which the flash point was -4 °C.

Take `C=CCCCCC(C)C` [7-methyl-1-octene]: the flash point amounted to 18 °C.

`CCCCCCCCCCCCCCCC[Si](Cl)(Cl)Cl` [Hexadecyltrichlorosilane]: in series [1], the flash point turned out to be 154.00 °C.

In turn, `CC[Si](CC)(CC)O[Si](CC)(CC)CC` [Hexaethyldisiloxane] returned a flash point in series [1] of 76.00 °C.

In series [1], `C[Si]1(C)O[Si](C)(C)O[Si](C)(C)O1` [Hexamethylcyclotrisiloxane] registered a flash point of 32.00 °C.

With `C[Si](C)(C)N[Si](C)(C)C` [Hexamethyldisilazane], the flash point in series [1] came to 8.00 °C.

Regarding `C[Si](C)(C)S[Si](C)(C)C` [Hexamethyldisilthiane], the flash point in series [1] was 26.00 °C.

`CC(C)C[Si](Cl)(Cl)Cl` [Isobutyltrichlorosilane] came in with a flash point in series [1] of 37.00 °C.

In series [1], `CCO[Si](C)(OCC)OCC` [Methyltriethoxysilane] displayed a flash point of 24.00 °C.

As to `C[Si](C)(C)N1CCOCC1` [N-(Trimethylsilyl)morpholine], the flash point in series [1] amounted to 27.00 °C.

In turn, `C[Si]1(C)N[Si](C)(C)N[Si](C)(C)N[Si](C)(C)N1` [Octamethylcyclotetrasilazane] came in with a flash point in series [1] of 66.00 °C.

For `CCCCCCCC[Si](OCC)(OCC)OCC` [Octyltriethoxysilane], the flash point in series [1] was 100.00 °C.

In turn, `C[SiH](C)O[Si](C)(C)C` [Pentamethyldisiloxane] had a flash point in series [1] of -19.00 °C.

`C[SiH](C)c1ccccc1` [Phenyldimethylsilane] had a flash point in series [1] of 38.00 °C.

In turn, `[SiH3]c1ccccc1` [Phenylsilane] showed a flash point in series [1] of 8.00 °C.

The molecule `CO[Si](OC)(OC)c1ccccc1` [Phenyltrimethoxysilane] had a flash point in series [1] of 85.00 °C.

Turning to `C#CCO[Si](C)(C)C` [Propargyloxytrimethylsilane], the flash point in series [1] stood at 27.00 °C.

As for `CCC[Si](O[SiH](C)C)(O[SiH](C)C)O[SiH](C)C` [Propyltris(dimethylsiloxy)silane], the flash point in series [1] was 50.00 °C.

In the case of `O=C=N[Si](N=C=O)(N=C=O)N=C=O` [Tetraisocyanatosilane], the flash point in series [1] was determined as 50.00 °C.

`C[SiH](C)O[Si](O[SiH](C)C)(O[SiH](C)C)O[SiH](C)C` [Tetrakisdimethylsiloxysilane] returned a flash point in series [1] of 67.00 °C.

Regarding `CCC[SiH](CCC)CCC` [Tri-n-propylsilane], the flash point in series [1] was 43.00 °C.

In series [1], `Cl[Si](Cl)(Cl)CCc1ccccc1` [Trichloro(2-phenylethyl)silane] yielded a flash point of 91.00 °C.

With `N#CCCC[Si](Cl)(Cl)Cl` [Trichloro(3-cyanopropyl) Silane], the flash point in series [1] was 92.00 °C.

For the molecule `ClC[Si](Cl)(Cl)Cl` [Trichloro(Chloromethyl) silane], the flash point in series [1] was 69.00 °C.

In turn, `CC[SiH](CC)CC` [Triethylsilane] yielded a flash point in series [1] of -3.00 °C.

Turning to `C=CO[Si](C)(C)C` [Trimethyl(vinyloxy)silane], the flash point in series [1] was -10.00 °C.

For the molecule `CCCO[Si](C)(C)C` [Trimethyl-n-propoxysilane], the flash point in series [1] was 10.00 °C.

In turn, `C[Si](C)(C)F` [Trimethylfluorosilane] showed a flash point in series [1] of -35.00 °C.

`C=C[Si](C)(C)O[Si](C)(C)C` [Vinylpentamethyldisiloxane] had a flash point in series [1] of 12.00 °C.

Turning to `C=C[Si](OC)(OC)OC` [Vinyltrimethoxysilane], the flash point in series [1] was 23.00 °C.

The molecule `C=C[Si](OCCOC)(OCCOC)OCCOC` [Vinyltris(methoxyethoxy)silane] showed a flash point in series [1] of 80.00 °C.

Take `CCCCCCCCCC[Si](C)(Cl)Cl` [n-Decylmethyldichlorosilane]: in series [1], the flash point was 120.00 °C.

In turn, `CCCCCCCCCCCC[Si](C)(Cl)Cl` [n-Dodecylmethyldichlorosilane] displayed a flash point in series [1] of 143.00 °C.

`CCCCCCCCCCCC[Si](Cl)(Cl)Cl` [n-Dodecyltrichlorosilane]: the flash point in series [1] turned out to be 162.00 °C.

Regarding `CCCCCC[Si](C)(Cl)Cl` [n-Hexylmethyldichlorosilane], in series [1], the flash point worked out at 85.00 °C.

For the molecule `CCCCCC[Si](Cl)(Cl)Cl` [n-Hexyltrichlorosilane], the flash point in series [1] turned out to be 85.00 °C.

The molecule `CCCCCCCC[Si](C)(C)Cl` [n-Octyldimethylchlorosilane] showed a flash point in series [1] of 97.00 °C.

Regarding `CCCCCCCC[Si](Cl)(Cl)Cl` [n-Octyltrichlorosilane], the flash point in series [1] was determined as 96.00 °C.

In turn, `CCC[Si](C)(Cl)Cl` [n-Propylmethyldichlorosilane] returned a flash point in series [1] of 27.00 °C.

In turn, `C[Si](C)(C)c1ccc(Cl)cc1` [p-Chlorophenyltrimethylsilane] registered a flash point in series [1] of 49.00 °C.

In the case of `CC(C)(C)O[Si](C)(C)C` [t-Butoxytrimethylsilane], the flash point in series [1] was determined as 14.00 °C.

The molecule `CC(C)(C)[Si](C)(C)Cl` [t-Butyldimethylchlorosilane] came in with a flash point in series [1] of 22.00 °C.

Consider `C[SiH](C)C(C)(C)C` [t-Butyldimethylsilane], for which, in series [1], the flash point was -22.00 °C.

As to `CC(C)(C)[Si](C)(C)O` [t-Butyldimethylsilanol], the flash point in series [1] came to 45.00 °C.

(Values after a flash point compilation (Sun et al. 2020).)
